# In publication PMC9161374 (Science Translational Medicine, 2022):
# “And” between values parts separate entries of the source, which are not always exact repeats. Identical values can stand only once. Like-named read-outs stand apart in the source and are kept apart here.
# Experiments:
# [1] = CCK-8 cell viability assay; format: cell-based, African green monkey; settings: African green monkey; Vero E6 cells, 48 h, CCK8
# Method: To investigate the effect of drugs on cell viability, Vero E6 cells were seeded in 96-well plates at a density of 20,000 cells per well and were treated with drugs at indicated concentrations (0, 0.01, 0.1, 1, 5, 10, 50, 75, 100, 200 μM) for 48 hours. Cell viability was tested by using Cell Counting Kit-8 (CCK-8, Bimake, B34302). The figures were plotted from cell viability percentage versus the drug concentrations using GraphPad Prism 6 software.
# Fig. S4. Cytotoxicity assay of compounds in Vero E6 cells.
# Vero E6 cells were plated in 96-well plates and treated with increasing concentrations
# of each indicated compound, ranging from 0 to 200 μM, for 48 hours. Cell viability was
# tested using Cell Counting Kit-8 (CCK-8). Data are presented as mean ± SD.
# [2] = system: SARS-CoV-2 (Beta, B.1.351); experiment: microbe, parasite or virus in culture; format: cell-based; settings: for % Inhibition: beta, listed as Remdsivir
# [3] = system: SARS-CoV-2 (Omicron, B.1.1.529); settings: Omicon, Vero E6, replicates, listed as Remdsivir
# [4] = system: SARS-CoV-2 (Delta, B.1.617.2); experiment: microbe, parasite or virus in culture; format: cell-based; settings: for % Inhibition: delta, listed as Remdsivir
# [5] = system: SARS-CoV-2 (B.1); experiment: Anti-SARS-CoV-2 activity in Vero E6 cells (viral yield by qRT-PCR); format: cell-based; settings: for % Inhibition: listed as Remdsivir
# [6] = system: COVID-19; parameters: method as in PMID 34937145; settings: administered early to non-hospitalized, high-risk patients ref 27; cited from earlier work
# [7] = system: SARS-CoV-2 (Omicron, B.1.1.529); experiment: microbe, parasite or virus in culture
# [8] = Severe acute respiratory syndrome coronavirus 2, Vero C1008, read-out: EC90 (Confidence 95%)
smiles,measurement,setting,value
"CCC(CC)COC(=O)[C@H](C)N[P@](=O)(OC[C@H]1O[C@@](C#N)(c2ccc3c(N)ncnn23)[C@H](O)[C@@H]1O)Oc1ccccc1 [Remdesivir, remdesivir, reference compound]",CC50 at 48 h,[1],> 50 µM
same,EC50,"[2]; Severe acute respiratory syndrome coronavirus 2, Vero C1008, 48 h, read-out: EC50 in Vero E6 cells, SARS-CoV-2 (Beta, B.1.351)",1.78 µM
same,inhibition at 0.01 µM,"[2]; Severe acute respiratory syndrome coronavirus 2, Vero C1008, beta, 0.01 uM, Vero E6, replicates",0%
same,inhibition at 0.1 µM,"[2]; Severe acute respiratory syndrome coronavirus 2, Vero C1008, beta, 0.1 uM, Vero E6, replicates",0%
same,inhibition at 0.25 µM,"[2]; Severe acute respiratory syndrome coronavirus 2, Vero C1008, beta, 0.25 uM, Vero E6, replicates",0%
same,inhibition at 0.5 µM,"[2]; Severe acute respiratory syndrome coronavirus 2, Vero C1008, beta, 0.5 uM, Vero E6, replicates",0%
same,inhibition at 2 µM,"[2]; Severe acute respiratory syndrome coronavirus 2, Vero C1008, beta, 2 uM, Vero E6, replicates",65.2%
same,inhibition at 5 µM,"[2]; Severe acute respiratory syndrome coronavirus 2, Vero C1008, beta, 5 uM, Vero E6, replicates",86.2%
same,inhibition at 10 µM,"[2]; Severe acute respiratory syndrome coronavirus 2, Vero C1008, beta, 10 uM, Vero E6, replicates",99.9%
same,inhibition at 50 µM,"[2]; Severe acute respiratory syndrome coronavirus 2, Vero C1008, beta, 50 uM, Vero E6, replicates",99.9%
same,EC90,"[2]; Severe acute respiratory syndrome coronavirus 2, Vero C1008, read-out: EC90 (Confidence 95%), Vero-E6, Beta B.1.351",5.02 µM
same,% Inhibition,"[2]; 1 uM, Vero E6, replicates",35.9868% and 14.2725%
same,% Inhibition,"[2]; 2 uM, Vero E6, replicates",49.345%
same,% Inhibition,"[2]; 5 uM, Vero E6, replicates",85.4168%
same,% Inhibition,"[2]; 10 uM, Vero E6, replicates",99.9589%
same,% Inhibition,"[2]; 50 uM, Vero E6, replicates",99.9256%
same,% Inhibition,[3]; 2.5 uM,31.5626% and 77.85% and 88.9906%
same,% Inhibition,[3]; 5 uM,96.6907% and 99.2675%
same,% Inhibition,[3]; 10 uM,99.9718% and 99.9679%
same,EC50,"[4]; Severe acute respiratory syndrome coronavirus 2, Vero C1008, 48 h, read-out: EC50 in Vero E6 cells, SARS-CoV-2 (Delta, B.1.617.2)",1.65 µM
same,inhibition at 0.01 µM,"[4]; Severe acute respiratory syndrome coronavirus 2, Vero C1008, delta, 0.01 uM, Vero E6, replicates",0%
same,inhibition at 0.1 µM,"[4]; Severe acute respiratory syndrome coronavirus 2, Vero C1008, delta, 0.1 uM, Vero E6, replicates",0%
same,inhibition at 0.25 µM,"[4]; Severe acute respiratory syndrome coronavirus 2, Vero C1008, delta, 0.25 uM, Vero E6, replicates",0%
same,inhibition at 0.5 µM,"[4]; Severe acute respiratory syndrome coronavirus 2, Vero C1008, delta, 0.5 uM, Vero E6, replicates",0%
same,inhibition at 1 µM,"[4]; Severe acute respiratory syndrome coronavirus 2, Vero C1008, delta, 1 uM, Vero E6, replicates",55.7%
same,inhibition at 2 µM,"[4]; Severe acute respiratory syndrome coronavirus 2, Vero C1008, delta, 2 uM, Vero E6, replicates",58%
same,inhibition at 5 µM,"[4]; Severe acute respiratory syndrome coronavirus 2, Vero C1008, delta, 5 uM, Vero E6, replicates",77.1%
same,inhibition at 10 µM,"[4]; Severe acute respiratory syndrome coronavirus 2, Vero C1008, delta, 10 uM, Vero E6, replicates",99.2%
same,inhibition at 50 µM,"[4]; Severe acute respiratory syndrome coronavirus 2, Vero C1008, delta, 50 uM, Vero E6, replicates",99.9%
same,EC90,"[4]; Severe acute respiratory syndrome coronavirus 2, Vero C1008, read-out: EC90 (Confidence 95%), Vero-E6, Delta B.1.617.2",7.34 µM
same,% Inhibition,"[4]; 1 uM, Vero E6, replicates",43.4129%
same,% Inhibition,"[4]; 2 uM, Vero E6, replicates",46.5254%
same,% Inhibition,"[4]; 5 uM, Vero E6, replicates",77.4749%
same,% Inhibition,"[4]; 10 uM, Vero E6, replicates",96.2382%
same,% Inhibition,"[4]; 50 uM, Vero E6, replicates",99.3849%
same,% Inhibition,"[5]; B.1, 2 uM, Vero E6, replicates, 2 µM",36.1424%
same,% Inhibition,"[5]; B.1, 5 uM, Vero E6, replicates, 5 µM",93.823%
same,% Inhibition,"[5]; B.1, 10 uM, Vero E6, replicates, 10 µM",98.7241%
same,% Inhibition,"[5]; B.1, 50 uM, Vero E6, replicates, 50 µM",99.0519%
same,inhibition at 0.01 µM,"[5]; Severe acute respiratory syndrome coronavirus 2, Vero C1008, B.1, 0.01 uM, Vero E6, replicates",0%
same,inhibition at 0.1 µM,"[5]; Severe acute respiratory syndrome coronavirus 2, Vero C1008, B.1, 0.1 uM, Vero E6, replicates",0%
same,inhibition at 0.25 µM,"[5]; Severe acute respiratory syndrome coronavirus 2, Vero C1008, B.1, 0.25 uM, Vero E6, replicates",0%
same,inhibition at 0.5 µM,"[5]; Severe acute respiratory syndrome coronavirus 2, Vero C1008, B.1, 0.5 uM, Vero E6, replicates",0%
same,inhibition at 1 µM,"[5]; Severe acute respiratory syndrome coronavirus 2, Vero C1008, B.1, 1 uM, Vero E6, replicates",0%
same,inhibition at 2 µM,"[5]; Severe acute respiratory syndrome coronavirus 2, Vero C1008, B.1, 2 uM, Vero E6, replicates",39.1%
same,inhibition at 5 µM,"[5]; Severe acute respiratory syndrome coronavirus 2, Vero C1008, B.1, 5 uM, Vero E6, replicates",94.6%
same,inhibition at 10 µM,"[5]; Severe acute respiratory syndrome coronavirus 2, Vero C1008, B.1, 10 uM, Vero E6, replicates",98.6%
same,inhibition at 50 µM,"[5]; Severe acute respiratory syndrome coronavirus 2, Vero C1008, B.1, 50 uM, Vero E6, replicates",99.2%
same,EC90,[5]; [8],4.25 µM
same,EC50,"[5]; Severe acute respiratory syndrome coronavirus 2, Vero C1008, MOI 0.05, 48 h",2.28 µM
same,reduction of the risk of hospitalization or death,[6],87%
same,EC50,"[7]; Severe acute respiratory syndrome coronavirus 2, Vero C1008, 48 h, read-out: EC50 in Vero E6 cells, SARS-CoV-2 (Omicron, B.1.1.529)",1.24 µM
same,inhibition at 0.069 µM,"[7]; Severe acute respiratory syndrome coronavirus 2, Vero C1008, Omicon, 0.069 uM, Vero E6, replicates",0%
same,inhibition at 5 µM,"[7]; Severe acute respiratory syndrome coronavirus 2, Vero C1008, Omicon, 5 uM, Vero E6, replicates",96.9%
same,inhibition at 10 µM,"[7]; Severe acute respiratory syndrome coronavirus 2, Vero C1008, Omicon, 10 uM, Vero E6, replicates",100%
same,EC90,[7]; [8],5.69 µM
